The subject of assay [1] is HCMV strain AD169 virions. The assay is described as follows: Infectivity of gradient purified virions treated with MCβD and/or cholesterol. The format is cell-based, human cytomegalovirus (HCMV). The method, then:
Due to the ability to sequester cholesterol in its hydrophobic pocket, methyl-ß-cyclodextrin (MCβD) removes cholesterol from membranes (Christian, Haynes et al. 1997). Thus, in order to directly test the role of virion envelope cholesterol in HCMV infection, purified virions were treated with various concentrations of MCβD to deplete cholesterol.
(§1) Gradient purified HCMV strain AD169 virions were either mock treated or treated with increasing concentrations of MCβD for 30 min at 37° C. MCβD (50 mM) treated virus was incubated in varying concentrations of cholesterol for 30 min at 37° C. Virus (no MCβD treatment) was incubated in varying concentrations of cholesterol for 30 min at 37° C. In all experiments, infectivity (FIG. 5, left panels) and cholesterol content (FIG. 5, right panels) were determined for the treated samples. Infectivity of untreated virus was set to 100%. Virus cholesterol content was determined using the amplexred (Invitrogen) specrofluorometric assay.
(§2) To determine whether the effect of MCβD could be rescued (and is thus reversible), and moreover, to determine if the loss of infectivity was due to cholesterol depletion, exogenous cholesterol was used to replenish the envelopes of MCβD-treated virions by incubating the virus particles with various amounts of free cholesterol.
(§3) To determine if virus infectivity could be increased by increasing virion cholesterol content alone, gradient purified HCMV virions were incubated with increasing concentrations of cholesterol then gradient purified for a second time.

Assay [2] concerns HCMV. The assay is described as follows: Cholesterol supplementation of serum-starved antibody-treated MRC5 cells, cell-free virus by TCID50. It is filed as cell-based, human cytomegalovirus (HCMV). As to conditions: serum-starved MRC5 cells also treated with LRP1-specific antibody, 0.1 PFU/cell, 96 hpi. As for the experimental part:
(§4) In a second experiment, cells were serum starved for 48 hours then treated with indicated antibodies. 1 hour post antibody treatment, serum-starved, confluent MRC5 cells were treated with various concentrations of cholesterol (+fatty acid-free BSA carrier) for 1 hour then infected at a multiplicity of 0.1 PFU/cell. At 96 hpi, released virus was used to infect new cells. “N” indicates no added cholesterol. Cell-free virus was quantified by a TCID50 assay. Data represents the mean and standard deviation from three independent experiments with three replicates each.

For assay [3], the system named is HCMV strain AD169 virions. The assay is described as follows: Virus cholesterol content after MCβD and/or cholesterol treatment, amplex red assay. Also on record: species or system human cytomegalovirus (HCMV). The method, then: as §1
To confirm that MCβD treatment depleted virus of envelope cholesterol, the cholesterol content of MCβD-depleted virus was determined (FIG. 5A, right).
as §2, §3

For a further assay, the system named is HCMV strain AD169. The assay is described as follows: Acid bypass assay of MCβD-treated virus, IE1 expression at 24 hpi. The format is cell-based, human cytomegalovirus (HCMV). The note with it: MCβD 50 mM, 3 pfu/cell, pH 4.7 vs 7.4, 24 hpi. As for the experimental part: It is known that infection of host cells by enveloped viruses relies on the fusion of the viral envelope with either an endosomal membrane or the plasma membrane of the cell. Therefore, experiments were designed to test whether infectivity of MCβD-treated virus can be restored by using an “acid bypass assay” (Mercer and Helenius 2008) to circumvent the normal membrane fusion process during virus entry.
Cells were infected with MCβD (50 mM)-treated or mock-treated HCMV strain AD169 at a multiplicity of 3 pfu/cell, allowed to sit at 4° C. for 30 min to allow virus binding, then treated with buffer at a neutral (7.4) or acidic (4.7) pH for 3 min, washed with PBS, and examined for IE1 expression 24 hours later.
HCMV particles, either treated with MCβD or left untreated, were bound to cells at 4° C., then incubated in a low pH buffer (pH 4.7) to artificially induce the fusion event, thus allowing fusion-deficient viruses to enter the cell and replicate. A neutral pH buffer was used as a control. Virus replication after acid bypass was visualized by IE1 expression at 24 hpi (FIG. 6).

Assay [4] deals with HCMV. The assay is described as follows: Mevastatin treatment of infected MRC5 cells, released virus quantified by TCID50. It is filed as cell-based, human cytomegalovirus (HCMV). As for the experimental part:
In a first experiment, MRC5 cells were left untreated, treated with Mevastatin or mock treated. At 90 minutes post Mevastatin treatment, cells were treated with antibody to LRP1 or tubulin or left untreated. 1 hour post Mevastatin treatment, cells were infected at a multiplicity of 0.1 PFU/cell. At 96 hpi, released virus was used to infect new cells.
as §4

Setting [5] is: MCβD (50 mM) treated virus incubated with varying cholesterol, 30 min at 37° C.
Where [6] appears, read: virus without MCβD treatment incubated with increasing cholesterol.
[7] abbreviates: virions treated with increasing MCβD, 30 min at 37° C.

Results on three compounds are retold here after patent US11008551B2, “Method to increase the infectivity of virus particles” (The Trustees of Princeton University, priority 2011, dated 2021).

`CC(C)CCC[C@@H](C)[C@H]1CC[C@H]2[C@@H]3CC=C4C[C@@H](O)CC[C@]4(C)[C@H]3CC[C@]12C` [cholesterol]: the “HCMV infectivity of MCβD-treated virions” value in assay [1] (setting [5]) was “partially restored”. The virus infectivity entry in assay [1] (setting [6]) is on record as “increased”. Moreover, in the assay with HCMV [2], the “production of HCMV infectivity” value is given as “substantially enhanced”. The “envelope cholesterol content of MCβD-treated virions” value in assay [3] (setting [5]) was “partially restored”. The “overall cholesterol content of virus” value in assay [3] (setting [6]) is listed as “increased”.

Take methyl-ß-cyclodextrin [MCβD]: the “ability of treated virus to enter the cell and express IE1 protein after acid bypass” value with HCMV strain AD169 is recorded as “dramatic difference”. In addition, the HCMV infectivity entry in assay [1] (setting [7]) is on record as “dose-dependent inhibition”. In addition, the “depletion of virion cholesterol” value in assay [3] (50 mM MCβD) is 90%. For the same compound, in assay [3] (setting [7]), the virus cholesterol content result is listed as “dose-dependent decrease”.

Regarding `CC[C@H](C)C(=O)O[C@H]1CCC=C2C=C[C@H](C)[C@H](CC[C@@H]3C[C@@H](O)CC(=O)O3)[C@H]21` [Mevastatin], the “reversal of the increased infectivity caused by inhibition of LRP1 activity” value in the assay with HCMV [4] (MRC5 cells also treated with LRP1 antibody) is “to a limited extent”. Further, the production of infectivity entry with HCMV [4] (MRC5 cells, 0.1 PFU/cell, 96 hpi, Mevastatin) is “inhibited the production of infectivity in a dose-dependent manner”.
